Values joined by “and” are separate entries in the source; they are usually repeats but may differ in a detail not shown here. Equal values may be shown once. Toxic doses and inconclusive results are not listed. How the source made its calls: active means survival T/C of 150% or more; inactive means T/C below 125% in these data.
System: BDF1 mice, B16 melanoma ip, median survival T/C
Assay: NCI In Vivo Anticancer Drug Screen. Data for tumor model B16 Melanoma (intraperitoneal) in B6D2F1 (BDF1) mice
Conditions: endpoint: median survival time, higher = longer survival
Outline: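 Survival or tumor size is measured after treatment of tumor-bearing mice and normalised to the vehicle-treated control group.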

[1] = dose: 10.0 mg/kg/injection, schedule: Q01DX009 (ip), vehicle: saline
[2] = dose: 100.0 mg/kg/injection, schedule: Q04DX003 (ip), vehicle: saline with Tween-80
[3] = dose: 200.0 mg/kg/injection, schedule: Q04DX003 (ip), vehicle: saline with Tween-80
[4] = dose: 0.19 mg/kg/injection, schedule: Q01DX009 (ip), vehicle: saline
[5] = dose: 0.39 mg/kg/injection, schedule: Q01DX009 (ip), vehicle: saline
[6] = dose: 0.78 mg/kg/injection, schedule: Q01DX009 (ip), vehicle: saline
[7] = dose: 1.56 mg/kg/injection, schedule: Q01DX009 (ip), vehicle: saline
[8] = dose: 100.0 mg/kg/injection, schedule: Q01DX009 (ip), vehicle: Klucel (hydroxypropylcellulose) (HPC)
[9] = dose: 200.0 mg/kg/injection, schedule: Q01DX009 (ip), vehicle: Klucel (hydroxypropylcellulose) (HPC)
[10] = dose: 400.0 mg/kg/injection, schedule: Q01DX009 (ip), vehicle: Klucel (hydroxypropylcellulose) (HPC)

Measured: T/C

COc1cccc2c1C(=O)c1c(O)c3c(c(O)c1C2=O)CC(O)(C(=O)CO)CC3OC1CC(N)C(O)C(C)O1 (stereo unspecified)
inactive: dose: 15.0 mg/kg/injection, schedule: Q01DX001 (ip), vehicle: water 108 % of control | dose: 30.0 mg/kg/injection, schedule: Q01DX001 (ip), vehicle: water 116 % of control | dose: 60.0 mg/kg/injection, schedule: Q01DX001 (ip), vehicle: water 114 % of control
active: dose: 1.12 mg/kg/injection, schedule: Q01DX001 (ip), vehicle: water 178 % of control | dose: 2.25 mg/kg/injection, schedule: Q01DX001 (ip), vehicle: water 156 % of control and 212 % of control and 228 % of control | dose: 2.9 mg/kg/injection, schedule: Q01DX009 (ip), vehicle: saline 195 % of control | dose: 4.2 mg/kg/injection, schedule: Q01DX001 (ip), vehicle: water 178 % of control | dose: 4.32 mg/kg/injection, schedule: Q01DX004 (ip), vehicle: other 152 % of control | dose: 4.5 mg/kg/injection, schedule: Q01DX001 (ip), vehicle: water 161 % of control and 194 % of control and 273 % of control | dose: 6.9 mg/kg/injection, schedule: Q01DX001 (ip), vehicle: water 183 % of control | dose: 7.2 mg/kg/injection, schedule: Q01DX004 (ip), vehicle: other 152 % of control | dose: 9.0 mg/kg/injection, schedule: Q01DX001 (ip), vehicle: water 203 % of control and 273 % of control and 277 % of control | dose: 9.4 mg/kg/injection, schedule: Q01DX001 (ip), vehicle: water 189 % of control | [1] 222 % of control and 298 % of control | dose: 11.4 mg/kg/injection, schedule: Q04DX003 (ip), vehicle: saline 182 % of control | dose: 11.7 mg/kg/injection, schedule: Q01DX009 (ip), vehicle: saline 267 % of control | dose: 12.0 mg/kg/injection, schedule: Q01DX004 (ip), vehicle: other 159 % of control | dose: 18.0 mg/kg/injection, schedule: Q01DX001 (ip), vehicle: water 203 % of control and 250 % of control and 273 % of control | dose: 18.75 mg/kg/injection, schedule: Q01DX001 (ip), vehicle: water 235 % of control | dose: 18.8 mg/kg/injection, schedule: Q01DX001 (ip), vehicle: water 200 % of control | dose: 19.2 mg/kg/injection, schedule: Q01DX001 (ip), vehicle: water 209 % of control | dose: 20.0 mg/kg/injection, schedule: Q01DX009 (ip), vehicle: saline 289 % of control and 314 % of control | dose: 22.8 mg/kg/injection, schedule: Q04DX003 (ip), vehicle: saline 236 % of control | dose: 23.4 mg/kg/injection, schedule: Q01DX009 (ip), vehicle: saline 165 % of control and 200 % of control | dose: 32.0 mg/kg/injection, schedule: Q01DX001 (ip), vehicle: other 164 % of control | dose: 36.0 mg/kg/injection, schedule: Q01DX001 (ip), vehicle: water 203 % of control | dose: 37.5 mg/kg/injection, schedule: Q01DX001 (ip), vehicle: water 226 % of control and 280 % of control | dose: 40.0 mg/kg/injection, schedule: Q01DX009 (ip), vehicle: saline 287 % of control | dose: 45.6 mg/kg/injection, schedule: Q04DX003 (ip), vehicle: saline 150 % of control and 276 % of control | dose: 46.8 mg/kg/injection, schedule: Q01DX009 (ip), vehicle: saline 172 % of control | dose: 72.0 mg/kg/injection, schedule: Q01DX001 (ip), vehicle: water 277 % of control | dose: 75.0 mg/kg/injection, schedule: Q01DX001 (ip), vehicle: water 314 % of control and 334 % of control | dose: 91.2 mg/kg/injection, schedule: Q04DX003 (ip), vehicle: saline 157 % of control and 276 % of control | dose: 150.0 mg/kg/injection, schedule: Q01DX001 (ip), vehicle: water 185 % of control and 315 % of control

COC1CCCCC1I (stereo unspecified)
inactive: dose: 50.0 mg/kg/injection, schedule: Q01DX009 (ip), vehicle: alcohol 100 % of control | dose: 75.0 mg/kg/injection, schedule: Q04DX003 (ip), vehicle: alcohol 95 % of control | dose: 100.0 mg/kg/injection, schedule: Q01DX009 (ip), vehicle: alcohol 92 % of control | dose: 150.0 mg/kg/injection, schedule: Q04DX003 (ip), vehicle: alcohol 92 % of control

Cc1sc2ccc(Cl)cc2[n+]1CCC(=O)O
inactive: [2] 105 % of control | [3] 107 % of control | dose: 400.0 mg/kg/injection, schedule: Q04DX003 (ip), vehicle: saline with Tween-80 105 % of control

C=C1C(=O)OC2CC3(C)CC(O)C(OC(C)=O)C(=C)C3CC12 (stereo unspecified)
inactive: dose: 2.5 mg/kg/injection, schedule: Q01DX009 (ip), vehicle: saline 109 % of control | dose: 5.0 mg/kg/injection, schedule: Q01DX009 (ip), vehicle: saline 104 % of control | [1] 106 % of control

CC#CCOCC(O)CO (stereo unspecified)
inactive: dose: 12.5 mg/kg/injection, schedule: Q01DX009 (ip), vehicle: water 105 % of control | dose: 25.0 mg/kg/injection, schedule: Q01DX009 (ip), vehicle: water 93 % of control | dose: 50.0 mg/kg/injection, schedule: Q01DX009 (ip), vehicle: water 113 % of control | dose: 100.0 mg/kg/injection, schedule: Q01DX009 (ip), vehicle: water 114 % of control

Nc1c2c(nc3ccccc13)CCCC2
inactive: [4] 95 % of control | [5] 95 % of control | [6] 100 % of control | [7] 95 % of control | dose: 3.12 mg/kg/injection, schedule: Q01DX009 (ip), vehicle: saline 102 % of control | dose: 6.25 mg/kg/injection, schedule: Q01DX009 (ip), vehicle: saline 91 % of control | dose: 12.5 mg/kg/injection, schedule: Q01DX009 (ip), vehicle: saline 100 % of control

CC(C)(C)OC(=O)NCCCCC(NC(=O)OCc1ccccc1)C(=O)ON1C(=O)CCC1=O (stereo unspecified)
inactive: dose: 50.0 mg/kg/injection, schedule: Q01DX009 (ip), vehicle: saline with Tween-80 98 % of control | dose: 100.0 mg/kg/injection, schedule: Q01DX009 (ip), vehicle: saline with Tween-80 92 % of control | dose: 200.0 mg/kg/injection, schedule: Q01DX009 (ip), vehicle: saline with Tween-80 87 % of control

CCCCC(CC)COP(OCC(CC)CCCC)OCC(CC)CCCC (stereo unspecified)
inactive: [2] 93 % of control | [3] 86 % of control

C1CC[N-]CC1.CC(=N\O)/C(C)=N/O.CC(=N\O)/C(C)=N/O.[Co+2].[c-]1ccccc1
inactive: [8] 90 % of control | [9] 93 % of control | [10] 90 % of control

S=C(SSSSC(=S)N1CCCCC1)N1CCCCC1
inactive: [8] 95 % of control | [9] 90 % of control | [10] 107 % of control

COc1cc([C@@H]2c3cc4c(c(O)c3C[C@H]3COC(=O)[C@@H]32)OCO4)cc(OC)c1OC
inactive: dose: 0.12 mg/kg/injection, schedule: Q01DX009 (ip), vehicle: suspension in saline 100 % of control | dose: 0.25 mg/kg/injection, schedule: Q01DX009 (ip), vehicle: suspension in saline 102 % of control | dose: 0.5 mg/kg/injection, schedule: Q01DX009 (ip), vehicle: saline 109 % of control | dose: 0.5 mg/kg/injection, schedule: Q01DX009 (ip), vehicle: suspension in saline 120 % of control | dose: 1.0 mg/kg/injection, schedule: Q01DX009 (ip), vehicle: saline 114 % of control | dose: 1.0 mg/kg/injection, schedule: Q01DX009 (ip), vehicle: suspension in saline 121 % of control

O=C(c1ccc(O)cc1O)c1cccc2ccccc12
inactive: [8] 98 % of control | [9] 98 % of control | [10] 100 % of control

O=S(=O)(O)c1ccc(N=Nc2ccc(O)cc2)cc1
inactive: dose: 50.0 mg/kg/injection, schedule: Q04DX003 (ip), vehicle: Klucel (hydroxypropylcellulose) (HPC) 105 % of control | dose: 100.0 mg/kg/injection, schedule: Q04DX003 (ip), vehicle: Klucel (hydroxypropylcellulose) (HPC) 97 % of control | dose: 200.0 mg/kg/injection, schedule: Q04DX003 (ip), vehicle: Klucel (hydroxypropylcellulose) (HPC) 91 % of control

COc1ccc2c(=O)c(C)c(-c3ccccc3)oc2c1CN(C)C
inactive: [4] 95 % of control | [5] 103 % of control | [6] 100 % of control | [7] 96 % of control

O=C(O)O.O=C(O)O.O=C(O)O.[Co]
inactive: dose: 25.0 mg/kg/injection, schedule: Q04DX003 (ip), vehicle: saline with Tween-80 88 % of control | dose: 50.0 mg/kg/injection, schedule: Q04DX003 (ip), vehicle: saline with Tween-80 91 % of control

C[Si](C)(O[Si](C)(C)c1ccccc1)c1ccccc1
inactive: dose: 25.0 mg/kg/injection, schedule: Q01DX009 (ip), vehicle: saline 123 % of control | dose: 100.0 mg/kg/injection, schedule: Q01DX009 (ip), vehicle: saline 114 % of control
